{
  "source": "patent US9335326B2",
  "about": "“Compositions and methods for characterizing a myopathy” (The Johns Hopkins University, priority 2010, dated 2016)",
  "molecules": {"B1": {"name": "C-terminal HMGCR: catalytic domain of human HMG-CoA reductase (aa 426-888 of SEQ ID NO: 1) expressed as a fusion protein with glutathione S-transferase (Sigma) (protein, UniProt P04035 426-888, looked up, fragment)", "chain": "SSVLVTQEPEIELPREPRPNEECLQILGNAEKGAKFLSDAEIIQLVNAKHIPAYKLETLMETHERGVSIRRQLLSKKLSEPSSLQYLPYRDYNYSLVMGACCENVIGYMPIPVGVAGPLCLDEKEFQVPMATTEGCLVASTNRGCRAIGLGGGASSRVLADGMTRGPVVRLPRACDSAEVKAWLETSEGFAVIKEAFDSTSRFARLQKLHTSIAGRNLYIRFQSRSGDAMGMNMISKGTEKALSKLHEYFPEMQILAVSGNYCTDKKPAAINWIEGRGKSVVCEAVIPAKVVREVLKTTTEAMIEVNINKNLVGSAMAGSIGGYNAHAANIVTAIYIACGQDAAQNVGSSNCITLMEASGPTNEDLYISCTMPSIEIGTVGGGTNLLPQQACLQMLGVQGACKDNPGENARQLARIVCGTVMAGELSLMAALAAGHLVKSHMIHNRSKINLQDLQGACTKKTA", "modifications": "GST fusion"}},
  "key": {"[1]": {"tested_on": "anti-200/100 autoantibody-positive patients", "assay": "Treatment response (objective improvement in strength) of anti-200/100 autoantibody-positive patients with necrotizing myopathy", "format": "in vivo, human", "excerpt": "Medication regimens and treatment responses (based on objective improvements in strength) were variable. The clinical characteristics of the 16 anti-200/100 autoantibody-positive patients are available. […] Six (43%) of the 14 patients experienced a relapse when immunosuppressive medication was tapered or withdrawn. Seven […] of the 14 patients are currently undergoing tapering of their immunosuppressive medications and have not experienced a relapse to date. Only 1 patient had complete tapering of immunosuppressive medications without experiencing a relapse of weakness.\nTwo hundred twenty-five patients with banked sera, muscle biopsy specimens available for review, and a myopathy as defined by proximal muscle weakness, elevated creatine kinase (CK)levels, myopathic electromyography (EMG) findings, muscle edema on magnetic resonance imaging (MRI), and/or features of myopathy on muscle biopsy were enrolled in a longitudinal study, approved by the Johns Hopkins Institutional Review Board, from March 2007 through December 2008. […]"}, "HeLa cells": {"tested_on": "HeLa cells", "assay": "Immunoprecipitation of 200-kd and 100-kd autoantigens from radiolabeled lysates of mevinolin-treated HeLa cells with patient serum", "format": "cell-based", "conditions": "HeLa cells pretreated for 24 hours with 10 pM mevinolin versus vehicle (DMSO) alone; FIG. 5A", "method": "Given the strong association of statin use with the development of these anti-200/100-kd autoantibodies, HeLa cells were labelled with ^35S-methionine/cysteine after pretreatment for 24 hours with either 10 pM mevinolin or vehicle (DMSO) alone. To validate the protein equivalence of these lysates, immunoprecipitations were performed using antibodies against Mi-2 or PM-Scl. As anticipated, equal amounts of Mi-2 and the 5 protein components of the PM-Scl complex were detected in each lysate type.\nSerum samples collected from each patient were stored at −80° C. HeLa cells cultured using standard procedures were radiolabeled for two hours with 100 μCi/ml ^35S-methionine and cysteine (MP Biomedicals, Solon, Ohio) in methionine-free and cysteine-free medium. The cells were subsequently lysed in buffer A (50 mM Tris pH 7.4, 150 mM NaCl, […], 0.5% Nonidet P40, 0.5% sodium deoxycholate, 0.1% sodium dodecyl sulfate (SDS), and a protease inhibitor cocktail). Each 10-cm dish was lysed in 1 ml buffer A and was used for 10 immunoprecipitations. Immunoprecipitations were performed by adding 1 μl of patient sera to 100 μl radiolabeled lysate and bringing the volume to 1 ml with buffer B (1% Nonidet P40, 20 mM Tris pH 7.4, 150 mM NaCl, 1 mM EDTA, and a protease inhibitor cocktail) and rotating the mix for one hour at 4° C. […]"}, "[2]": {"tested_on": "human anti-HMGCR antibodies", "assay": "Competition immunoprecipitation: patient sera preincubated with unlabeled C-terminal HMGCR, then IP of full-length IVTT HMGCR", "format": "binding", "conditions": "anti-HMGCR-positive sera preincubated with increasing concentrations of unlabeled C-terminal HMGCR; FIG. 7A", "excerpt": "HMG-CoA reductase is a membrane protein with a small extracellular domain, seven membrane-spanning domains, and an intracellular catalytic domain. To define the region(s) of the protein recognized by sera from patients with anti-HMGCR antibodies, 35S-methionine-labeled full-length HMGCR protein, an N-terminal fragment including the extracellular and membrane-spanning domains (aa 1-377 of SEQ ID NO: 1), and a C-terminal fragment including the intracellular portion of the molecule (aa 340-888 of SEQ ID NO: 1) were synthesized. Serum from anti-HMGCR-positive patients consistently immunoprecipitated full-length HMGCR and the C-terminal fragment, but not the N-terminal fragment (FIG. 6). When anti-HMGCR-positive sera were preincubated with increasing concentrations of unlabeled C-terminal HMGCR prior to immunoprecipitation of 35S-methionine-labeled full-length HMGCR protein, immunoprecipitation was abolished (FIG. 7A).\nDNA encoding full-length human HMG-CoA reductase was purchased from Invitrogen (Carlsbad, Calif.). […]\nOne microliter of each patient serum was preincubated (30 minutes at 4° C. in 50 μl) with the catalytic domain of human HMG-CoA reductase (aa 426-888 of SEQ ID NO: 1) expressed as a fusion protein with glutathione S-transferase (hereinafter referred to as “C-terminal HMG-CoA reductase”; Sigma). […]"}},
  "data": [
    {"molecule": "Rituximab: immunosuppressant drug", "values": [
      {"measurement": "benefit as adjunct therapy", "setting": "[1]; added to prednisone and azathioprine or methotrexate", "result": "helpful adjuncts"}
    ]},
    {"molecule": "C[C@]12C=CC(=O)C=C1CC[C@@H]1[C@@H]2C(=O)C[C@@]2(C)[C@H]1CC[C@]2(O)C(=O)CO", "note": "[prednisone]", "values": [
      {"measurement": "initial response to prednisone", "setting": "[1]; most patients, combination immunosuppressive therapy was required", "result": "very modest initial response"}
    ]},
    {"molecule": "CC[C@H](C)C(=O)O[C@H]1C[C@@H](C)C=C2C=C[C@H](C)[C@H](CC[C@@H]3C[C@@H](O)CC(=O)O3)[C@H]21", "note": "[mevinolin]", "values": [
      {"measurement": "increased levels of both the 200-kd and the 100-kd protein immunoprecipitated", "setting": "HeLa cells", "result": 3, "unit": "fold"}
    ]},
    {"molecule": "B1", "values": [
      {"measurement": "immunoprecipitation of 35S-methionine-labeled full-length HMGCR protein", "setting": "[2]", "result": "abolished"}
    ]}
  ]
}
